Experiment [1] relates to senescent fibroblasts (SnCs), IMR90 cells. Description: Senolytic activity: killing irradiated senescent IMR90 fibroblasts vs replicating or quiescent fibroblasts (CellTiter-Glo). Format: cell-based, human. The conditions noted are these: for Best SI: specificity for senescent cells vs replicating or quiescent fibroblasts, 1.0 = non-specific; for senolytic activity, potency: result in words. From the text:
Human fibroblast IMR90 cells can be obtained from the American Type Culture Collection (ATCC®) with the designation CCL-186. The cells are maintained at <75% confluency in DMEM containing FBS and Pen/Strep in an atmosphere of 3% O2, 10% CO2, and ˜95% humidity. The cells are divided into three groups: irradiated cells (cultured for 14 days after irradiation prior to use), proliferating normal cells (cultured at low density for one day prior to use), and quiescent cells (cultured at high density for four day prior to use).
On day 0, the irradiated cells are prepared as follows. IMR90 cells are washed, placed in T175 flasks at a density of 50,000 cells per mL, and irradiated at 10-15 Gy. Following irradiation, the cells are plated at 100 μL in 96-well plates. On days 1, 3, 6, 10, and 13, the medium in each well is aspirated and replaced with fresh medium.
On day 10, the quiescent healthy cells are prepared as follows. IMR90 cells are washed, combined with 3 mL of TrypLE trypsin-containing reagent (Thermofisher Scientific, Waltham, Mass.) and cultured for 5 min until the cells have rounded up and begin to detach from the plate. Cells are dispersed, counted, and prepared in medium at a concentration of 50,000 cells per mL. 100 μL of the cells is plated in each well of a 96-well plate. Medium is changed on day 13.
On day 13, the proliferating healthy cell population is prepared as follows. Healthy IMR90 cells are washed, combined with 3 mL of TrypLE and cultured for 5 minutes until the cells have rounded up and begin to detach from the plate. Cells are dispersed, counted, and prepared in medium at a concentration of 25,000 cells per mL. 100 μL of the cells is plated in each well of a 96-well plate.
On day 14, test Bcl-2 inhibitors or MDM2 inhibitors are combined with the cells as follows. A DMSO dilution series of each test compound is prepared at 200 times the final desired concentration in a 96-well PCR plate. Immediately before use, the DMSO stocks are diluted 1:200 into prewarmed complete medium. Medium is aspirated from the cells in each well, and 100 μL/well of the compound containing medium is added.
Candidate senolytic agents for testing are cultured with the cells for 6 days, replacing the culture medium with fresh medium and the same compound concentration on day 17. Bcl-2 inhibitors like 001967 are cultured with the cells for 3 days. The assay system uses the properties of a thermostable luciferase to enable reaction conditions that generate a stable luminescent signal while simultaneously inhibiting endogenous ATPase released during cell lysis. At the end of the culture period, 100 μL of CellTiter-Glo® reagent (Promega Corp., Madison, Wis.) is added to each of the wells. The cell plates are placed for 30 seconds on an orbital shaker, and luminescence is measured.
Furthermore, even if the compound is potent, it would not be suitable for use as a therapeutic unless it preferentially kills senescent cells with a high degree of selectivity. Accordingly, compounds in the library showing high Bcl binding affinity were further screened for their ability to kill irradiated fibroblasts, in comparison with replicating fibroblasts or fibroblasts that were quiescent (due to confluence) but not senescent.
(In ATP-based viability assays light output follows the ATP content of the culture.)

For another experiment, the target named is Bcl isoforms. The experiment in a line: Binding affinity for the Bcl isoforms. Particulars: result in words. The source says: The ability of candidate compounds to inhibit Bcl-2 and Bcl-xL activity can be measured on the molecular level by direct binding. This assay uses a homogenous assay technology based on oxygen channeling that is marketed by PerkinElmer Inc., Waltham, Mass.: see Eglin et al., Current Chemical Genomics, 2008, 1, 2-10. The test compound is combined with the target Bcl protein and a peptide representing the corresponding cognate ligand, labeled with biotin. The mixture is then combined with streptavidin bearing luminescent donor beads and luminescent acceptor beads, which proportionally reduces luminescence if the compound has inhibited the peptide from binding to the Bcl protein.
Bcl-2, Bcl-xL and Bcl-w are available from Sigma-Aldrich Co., St. Louis, Mo. Biotinylated BIM peptide (ligand for Bcl-2) and BAD peptide (ligand for Bcl-xL) are described in US 2016/0038503 A1. AlphaScreen® Streptavidin donor beads and Anti-6×His AlphaLISA® acceptor beads are available from PerkinElmer.
To conduct the assay, a 1:4 dilution series of the compound is prepared in DMSO, and then diluted 1:100 in assay buffer. In a 96-well PCR plate, the following are combined in order: 10 μL peptide (120 nM BIM or […]), 10 μL test compound, and 10 μL Bcl protein (0.8 nM Bcl-2/W or 0.4 nM Bcl-XL). The assay plate is incubated in the dark at room temperature for 24 h. The next day, donor beads and acceptor beads are combined, and 5 μL is added to each well. After incubating in the dark for 30 minute, luminescence is measured using a plate reader, and the affinity or degree of inhibition by each test compound is determined.

As for `CCn1c(C)c(C(=O)O)c(-c2cccc(N3CCN(c4ccc(NS(=O)(=O)c5ccc(N[C@H](CCN6CCC(O)CC6)CSc6ccccc6)c(S(=O)(=O)C(F)(F)F)c5)cc4)CC3)c2)c1-c1ccc(Cl)cc1` [BM-957], the “Best SI” value in experiment [1] was 11.7.

For the compound `Cc1c(C(=O)O)c(-c2cccc(N3CCN(c4ccc(NS(=O)(=O)c5ccc(N[C@H](CCN6CCC(O)CC6)CSc6ccccc6)c(S(=O)(=O)C(F)(F)F)c5)cc4)CC3)c2)c(-c2ccc(Cl)cc2)n1C(C)C` [BM-962], in experiment [1], the “Best SI” value is on record as 18.5.

For the compound `CCn1c(C)c(S(C)(=O)=O)c(-c2cc(F)cc(N3CCN(c4ccc(NS(=O)(=O)c5ccc(N[C@H](CCN6CCC(O)CC6)CSc6ccccc6)c(S(=O)(=O)C(F)(F)F)c5)cc4)CC3)c2)c1-c1ccc(F)cc1` [BM-1192], the “Best SI” value in experiment [1] is reported as 60.0.

On to `Cc1c(S(C)(=O)=O)c(-c2cc(F)cc(N3CCN(c4ccc(NS(=O)(=O)c5ccc(N[C@H](CCN6CCC(O)CC6)CSc6ccccc6)c(S(=O)(=O)C(F)(F)F)c5)cc4)CC3)c2)c(-c2ccc(F)cc2)n1C(C)C` [BM-1195], for which, in experiment [1], the “senolytic activity, potency” value is reported as “potent in the nanomole range” and the “Best SI” value came out at 128.7. For the same compound, on Bcl isoforms, the “binding affinities (Ki) for the Bcl isoforms” value (from here on “binding affinities (Ki)”) is “nanomole to picomole range”.

With `Cc1c(S(C)(=O)=O)c(-c2cc(F)cc(N3CCN(c4ccc(NS(=O)(=O)c5ccc(N[C@H](CCN6CCC(O)CC6)CSc6ccccc6)c(S(=O)(=O)C(F)(F)F)c5)cc4)CC3)c2)c(-c2ccc(Cl)cc2)n1C(C)C` [BM-1197], in experiment [1], the “senolytic activity, potency” value is reported as “potent in the nanomole range” and the “Best SI” value came to 366.7. In addition, the “binding affinities (Ki)” value on Bcl isoforms was “nanomole to picomole range”.

Regarding `Cc1c(S(C)(=O)=O)c(-c2cc(F)cc(N3CCN(c4ccc(NS(=O)(=O)c5ccc(N[C@H](CCN6CCC(C(=O)O)CC6)CSc6ccccc6)c(S(=O)(=O)C(F)(F)F)c5)cc4)CC3)c2)c(-c2ccc(Cl)cc2)n1C(C)C` [BM-1244], the “Best SI” value in experiment [1] is recorded as 66.7. Moreover, on Bcl isoforms, the “binding affinities (Ki)” value is given as “nanomole to picomole range”.
